In PMC4720136 (Journal of the American Chemical Society, 2015):

Target: EncM (Streptomyces maritimus, UniProt Q9KHK2)
Experiment: stopped-flow flavin reduction at […] nm, hyperbolic fit of kobs
Assay type: biochemical
Conditions: read-out: apparent Kd; EncM-Flox (oxidized, inactive flavin form), anaerobic, 4 °C, 0.1 M Tris-H2SO4 pH 7.5, 10% glycerol

NC(=O)C1=CN([C@@H]2O[C@H](COP(=O)(O)OP(=O)(O)OC[C@H]3O[C@@H](n4cnc5c(N)ncnc54)[C@H](O)[C@@H]3O)[C@@H](O)[C@H]2O)C=CC1 [NADH]
Kd: 9.3 ± 0.3 mM

NC(=O)C1=CN([C@@H]2O[C@H](COP(=O)(O)OP(=O)(O)OC[C@H]3O[C@@H](n4cnc5c(N)ncnc54)[C@H](OP(=O)(O)O)[C@@H]3O)[C@@H](O)[C@H]2O)C=CC1 [NADPH]
Kd: 0.26 ± 0.01 mM
